Patent EP4813986A1, “COMPOUND FOR REDUCING SERUM CONCENTRATION OF RBP4, AND USE” (Heronova Pharmaceuticals, LLC, priority 2023, dated 2025)

What was measured:
[1] = biological target: T1, RBP4 (Mus musculus, UniProt Q00724); assay: Plasma RBP4 content detection test (ELISA) after single oral dose; format: in vivo, ICR male mice; settings: 5 mg/kg oral, maximum reduction within 5 to 24 hours vs 0-hour value
T1 construct: from tissue; host or cells: plasma of ICR male mice
Procedure: Test Method: ICR male mice aged 7 to 8 weeks were adaptively fed for 3 to 7 days and randomly divided into groups (4 mice per group), and fasted for 12 hours before the test. Orbital venous blood samples were collected and plasma was separated before administration on the test day (0-hour value as the initial content). Then, test compounds at a dose of 1 mg/kg or 5 mg/kg were orally administered (vehicle: 5% DMSO + 10% cyclodextrin), and vehicle (5% DMSO + 10% cyclodextrin) was orally administered as a control group. Orbital venous blood samples were collected and plasma was separated at 5, 8, 10, 12, and 24 hours after compound administration. The RBP4 content in plasma samples was detected using Mouse RBP4 (Retinol Binding Protein 4, Plasma) ELISA Kit (immunoway, KE1574), the reduction rate was calculated, and the maximum reduction rate within 5 to 24 hours was selected. Reduction rate of RBP4 content in mouse plasma at different sampling time points = (Initial RBP4 content - RBP4 content at sampling point) / Initial RBP4 content. Table 2 Plasma RBP4 Reduction Levels of Different Compounds

[2] = Pharmacokinetic test, single oral dose, plasma LC-MS/MS; format: in vivo; settings: mouse, single oral dose 10 mg/kg, male ICR mice
Procedure: Test Method: Three ICR mice (male) were used for each compound, with five groups in total. Mice were treated with a single oral dose of 10 mg/kg or 5 mg/kg. For each mouse, blood samples were collected at 0.25, 0.5, 1, 2, 4, and 8 hours after administration. Whole blood samples were placed in test tubes containing EDTA-K2, inverted up and down several times, and then centrifuged at 6000 rpm, 4°C for 15 minutes to obtain plasma. The concentration of the compound in plasma samples was determined using the LC-MS/MS method. Table 4 Pharmacokinetic Results of Different Compounds

[3] = in vitro; settings: microsomes, pH 7.4
Procedure: Phosphate buffer preparation: Weigh 7.098 g of disodium hydrogen phosphate, add 500 mL of pure water and dissolve by ultrasonication to obtain a disodium hydrogen phosphate solution. Weigh 3.400 g of potassium dihydrogen phosphate, add 250 mL of pure water and dissolve by ultrasonication to obtain a potassium dihydrogen phosphate solution. The disodium hydrogen phosphate solution and potassium dihydrogen phosphate solution were mixed and adjusted to pH 7.4+0.2.
10 mM NADPH preparation: Weigh an appropriate amount of NADPH (reduced coenzyme II), freshly prepare a 10 mM working solution with phosphate buffer, and the final concentration is 1 mM.
Incubation system preparation: Prepare the suspension into the incubation plate according to Table 5, and pre-incubate in a 37°C water bath for 10 min. Table 5 Incubation System Preparation
2 µL of positive control or test compound working solution was added to 358 µL of the incubation system, mixed uniformly by vortexing, and all samples were prepared in duplicate. 40 µL of 10 mM NADPH was added to the system, mixed uniformly by low-speed vortexing, and the reaction timing was started. […] Centrifuge at 4700 rpm, 4°C for 15 minutes to precipitate proteins. Transfer 100 µL of the supernatant to the sample plate, add 100 µL of pure water and mix well for UPLC-MS/MS analysis. Table 6 Liver Microsome Stability Results

SMILES: CC(C(N)=O)C(=O)N1CCc2c(C(=O)N3CC=C(c4cccc(F)c4C(F)(F)F)CC3)n[nH]c2C1 (centres unmarked) [Compound 22]
- Maximum Plasma RBP4 Reduction Rate (5 mg/kg dose) [1]: 11%
- AUC(0-t) [2]: 13.3 ng·h/mL
- Cmax ([2]; read-out: peak concentration Cmax): 15.2 ng/mL
- Tmax ([2]; read-out: peak time Tmax): 30 min
- half-life at 1 µM ([3]; human): > 180 min
- microsomal CLint at 1 µM ([3]; human): < 7.44 µL/min/mg
- half-life at 1 µM ([3]; mouse): 43 min
- microsomal CLint at 1 µM ([3]; mouse): 32.2 µL/min/mg
